Assay results taken from PubChem BioAssay AID248 (DTP/NCI, 2004).
Where “and” joins values, the source holds several entries; their conditions need not be identical. Equal entries are not always repeated. Toxic doses and inconclusive results are not listed. No stated cut-off is given here; in the data, active means T/C of 150% or more; inactive means T/C below 125%.

Tested on: L1210 leukemia ip in BDF1 mice, survival T/C
Test: NCI In Vivo Anticancer Drug Screen. Data for tumor model L1210 Leukemia (intraperitoneal) in B6D2F1 (BDF1) mice
Settings: endpoint: mean survival time, higher = longer survival
Summary of the method: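 Antitumor effect is assessed in tumor-bearing animals. Survival in the compound arm is compared with a vehicle-dosed control arm and expressed as their quotient.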

[1] = dose: 12.5 mg/kg/injection, schedule: Q01DX009 (ip), vehicle: Klucel (hydroxypropylcellulose) (HPC)
[2] = dose: 25.0 mg/kg/injection, schedule: Q01DX009 (ip), vehicle: Klucel (hydroxypropylcellulose) (HPC)
[3] = dose: 25.0 mg/kg/injection, schedule: Q01DX009 (ip), vehicle: saline with Tween-80
[4] = dose: 50.0 mg/kg/injection, schedule: Q01DX009 (ip), vehicle: saline with Tween-80
[5] = dose: 200.0 mg/kg/injection, schedule: Q04DX003 (ip), vehicle: saline with Tween-80
[6] = dose: 400.0 mg/kg/injection, schedule: Q04DX002 (ip), vehicle: saline with Tween-80
[7] = dose: 400.0 mg/kg/injection, schedule: Q04DX003 (ip), vehicle: saline with Tween-80
[8] = dose: 100.0 mg/kg/injection, schedule: Q01DX009 (ip), vehicle: saline with Tween-80
[9] = dose: 100.0 mg/kg/injection, schedule: Q04DX003 (ip), vehicle: saline with Tween-80
[10] = dose: 200.0 mg/kg/injection, schedule: Q01DX009 (ip), vehicle: saline with Tween-80
[11] = dose: 400.0 mg/kg/injection, schedule: Q01DX009 (ip), vehicle: saline with Tween-80
[12] = dose: 50.0 mg/kg/injection, schedule: Q01DX009 (ip), vehicle: Klucel (hydroxypropylcellulose) (HPC)
[13] = dose: 100.0 mg/kg/injection, schedule: Q01DX009 (ip), vehicle: saline
[14] = dose: 200.0 mg/kg/injection, schedule: Q01DX009 (ip), vehicle: saline
[15] = dose: 400.0 mg/kg/injection, schedule: Q01DX009 (ip), vehicle: saline
[16] = dose: 100.0 mg/kg/injection, schedule: Q01DX009 (ip), vehicle: Klucel (hydroxypropylcellulose) (HPC)
[17] = dose: 100.0 mg/kg/injection, schedule: Q04DX002 (ip), vehicle: saline with Tween-80
[18] = dose: 100.0 mg/kg/injection, schedule: Q01DX001 (ip), vehicle: saline

Measured: T/C

NC(=Nc1ccccc1)Nc1ccccc1
inactive: dose: 6.25 mg/kg/injection, schedule: Q01DX009 (ip), vehicle: Klucel (hydroxypropylcellulose) (HPC) 101 % of control | [1] 101 % of control | dose: 12.5 mg/kg/injection, schedule: Q01DX009 (ip), vehicle: saline with Tween-80 97 % of control | [2] 89 % of control | [3] 102 % of control | dose: 35.0 mg/kg/injection, schedule: Q01DX009 (ip), vehicle: saline 101 % of control | [4] 97 % of control

COc1ccc(C2CC(=O)OC(=O)C2)cc1
inactive: dose: 25.6 mg/kg/injection, schedule: Q04DX002 (ip), vehicle: saline with Tween-80 101 % of control | dose: 64.0 mg/kg/injection, schedule: Q04DX002 (ip), vehicle: saline with Tween-80 101 % of control | dose: 160.0 mg/kg/injection, schedule: Q04DX002 (ip), vehicle: saline with Tween-80 101 % of control | [5] 97 % of control | [6] 95 % of control | [7] 92 % of control

CCOC(=O)c1c[nH]c2c(OC)cccc2c1=O
inactive: [8] 102 % of control | [9] 98 % of control | [10] 88 % of control | [5] 98 % of control | [11] 97 % of control | [7] 109 % of control

CCOC(=O)C(CCc1ccncc1)c1ccccc1 (configuration not stated)
inactive: dose: 111.0 mg/kg/injection, schedule: Q01DX Z (ip), vehicle: methylcellulose (MC) 94 % of control | dose: 166.0 mg/kg/injection, schedule: Q01DX Z (ip), vehicle: methylcellulose (MC) 102 % of control | dose: 250.0 mg/kg/injection, schedule: Q01DX Z (ip), vehicle: methylcellulose (MC) 96 % of control

COc1ccc(C(=O)/C=C/c2ccccc2O)cc1
inactive: dose: 75.0 mg/kg/injection, schedule: Q04DX003 (ip), vehicle: saline 104 % of control | dose: 150.0 mg/kg/injection, schedule: Q04DX003 (ip), vehicle: saline 101 % of control | dose: 300.0 mg/kg/injection, schedule: Q04DX003 (ip), vehicle: saline 96 % of control

O=C(CSCC(=O)c1ccccc1)c1ccccc1
inactive: [1] 93 % of control | [2] 104 % of control | [12] 112 % of control | dose: 80.0 mg/kg/injection, schedule: Q01DX009 (ip), vehicle: Klucel (hydroxypropylcellulose) (HPC) 103 % of control | dose: 115.0 mg/kg/injection, schedule: Q01DX009 (ip), vehicle: Klucel (hydroxypropylcellulose) (HPC) 100 % of control | dose: 170.0 mg/kg/injection, schedule: Q01DX009 (ip), vehicle: Klucel (hydroxypropylcellulose) (HPC) 100 % of control

CC(=O)NC1CCCCCCC1
inactive: dose: 100.0 mg/kg/injection, schedule: Q01DX005 (ip), vehicle: saline 103 % of control | [13] 108 % of control | dose: 100.0 mg/kg/injection, schedule: Q04DX002 (ip), vehicle: saline 100 % of control | dose: 200.0 mg/kg/injection, schedule: Q01DX005 (ip), vehicle: saline 109 % of control | [14] 102 % of control | dose: 200.0 mg/kg/injection, schedule: Q04DX002 (ip), vehicle: saline 110 % of control | dose: 400.0 mg/kg/injection, schedule: Q01DX005 (ip), vehicle: saline 109 % of control | [15] 115 % of control | dose: 400.0 mg/kg/injection, schedule: Q04DX002 (ip), vehicle: saline 100 % of control

COC(=O)c1ccc(Cl)c(Cl)c1
inactive: [3] 110 % of control | [4] 104 % of control | [8] 107 % of control | [10] 100 % of control | [11] 102 % of control

O=C1CN(CN2CCCCC2)C(=O)CN1CN1CCCCC1
inactive: [16] 91 % of control | dose: 100.0 mg/kg/injection, schedule: Q04DX003 (ip), vehicle: Klucel (hydroxypropylcellulose) (HPC) 109 % of control | dose: 200.0 mg/kg/injection, schedule: Q01DX009 (ip), vehicle: Klucel (hydroxypropylcellulose) (HPC) 95 % of control | dose: 200.0 mg/kg/injection, schedule: Q04DX003 (ip), vehicle: Klucel (hydroxypropylcellulose) (HPC) 106 % of control | dose: 400.0 mg/kg/injection, schedule: Q04DX003 (ip), vehicle: Klucel (hydroxypropylcellulose) (HPC) 90 % of control

O=C1C=C/C(=N/c2ccc(O)o2)c2ccccc21
inactive: dose: 150.0 mg/kg/injection, schedule: Q01DX001 (ip), vehicle: saline 100 % of control

CCOC(=O)C1(c2ccccc2)CCN(CC(O)COc2cc(C)ccc2C(C)C)CC1 (configuration not stated)
inactive: [2] 91 % of control | [12] 100 % of control | [16] 93 % of control and 97 % of control

Cc1cc(C2=CCCCC2)c2ccccc2c1C
inactive: dose: 100.0 mg/kg/injection, schedule: Q01DX001 (ip), vehicle: Klucel (hydroxypropylcellulose) (HPC) 95 % of control | dose: 200.0 mg/kg/injection, schedule: Q01DX001 (ip), vehicle: Klucel (hydroxypropylcellulose) (HPC) 103 % of control | dose: 400.0 mg/kg/injection, schedule: Q01DX001 (ip), vehicle: Klucel (hydroxypropylcellulose) (HPC) 95 % of control

CCCCC(C=O)(CCN1CCCC1)c1cccc2ccccc12 (configuration not stated)
inactive: dose: 25.0 mg/kg/injection, schedule: Q04DX002 (ip), vehicle: saline with Tween-80 88 % of control | dose: 50.0 mg/kg/injection, schedule: Q04DX002 (ip), vehicle: saline with Tween-80 100 % of control | [17] 103 % of control

CCCCCCCCCCCCCC(=O)O (tested in a mixture with another compound)
inactive: dose: 5.0 mg/kg/injection, schedule: Q01DX001 (ip), vehicle: saline 101 % of control | dose: 10.0 mg/kg/injection, schedule: Q01DX001 (ip), vehicle: saline 95 % of control | dose: 20.0 mg/kg/injection, schedule: Q01DX001 (ip), vehicle: saline 102 % of control | dose: 40.0 mg/kg/injection, schedule: Q01DX001 (ip), vehicle: saline 102 % of control | dose: 80.0 mg/kg/injection, schedule: Q01DX001 (ip), vehicle: saline 90 % of control | [18] 98 % of control

COc1ccc(CN2CCCN(Cc3ccc(OC)cc3OC)C2c2ccccc2F)c(OC)c1
inactive: dose: 50.0 mg/kg/injection, schedule: Q01DX001 (ip), vehicle: saline 96 % of control | [18] 96 % of control | dose: 200.0 mg/kg/injection, schedule: Q01DX001 (ip), vehicle: saline 89 % of control | dose: 400.0 mg/kg/injection, schedule: Q01DX001 (ip), vehicle: saline 94 % of control

O=S(=O)(c1ccc(Br)cc1)C(F)(F)F
inactive: [17] 101 % of control | dose: 200.0 mg/kg/injection, schedule: Q04DX002 (ip), vehicle: saline with Tween-80 101 % of control | [6] 86 % of control

O=C1CCCN(C2CCCCC2)CCC1O (configuration not stated)
inactive: dose: 100.0 mg/kg/injection, schedule: Q04DX003 (ip), vehicle: acetone 96 % of control | dose: 200.0 mg/kg/injection, schedule: Q04DX003 (ip), vehicle: acetone 93 % of control

CN1CCN(Cc2cc(C(C)(C)C)cc(-c3ccccc3)c2O)CC1
inactive: dose: 100.0 mg/kg/injection, schedule: Q04DX003 (ip), vehicle: saline 92 % of control | dose: 200.0 mg/kg/injection, schedule: Q04DX003 (ip), vehicle: saline 102 % of control | dose: 400.0 mg/kg/injection, schedule: Q04DX003 (ip), vehicle: saline 110 % of control

O=C1CCCCC1Oc1ccccc1 (configuration not stated)
inactive: [8] 95 % of control | [9] 95 % of control | [10] 101 % of control | [5] 98 % of control | [11] 86 % of control | [7] 93 % of control

COc1cc(Cl)ccc1NC(=O)OCCc1ccccn1
inactive: [13] 97 % of control | [14] 100 % of control | [15] 97 % of control
